The results in this text go back to ChEMBL document CHEMBL3992506, “An in-tether sulfoxide chiral center influences the biophysical properties of the N-capped peptides” (Bioorg Med Chem, 2017).

SMILES strings stand for the structures. Numbered stars: 1 amine (or outer) side, 2 acyl side, 3 side chain; on linkers, the order of the positions; unused ones are H or OH. Bridge positions count the residues as written; N and C are the ends. Square brackets hold non-standard residues; d marks the D form. Peptide text beside a SMILES is read from it. * marks the point of attachment. 5FAM = O=C1OC2(c3ccc(O)cc3Oc3cc(O)ccc32)c2ccc(C(=O)*)cc21; X1 = O=C(CN(CC[*:3])[*:1])[*:2]; Mpa = O=C(O)CCS

Broadly, the Kd is a measure of binding affinity in units of concentration.

Series [1] has as its target T1, Estrogen receptor (Homo sapiens, UniProt P03372).
T1 sequence (P03372 whole entry): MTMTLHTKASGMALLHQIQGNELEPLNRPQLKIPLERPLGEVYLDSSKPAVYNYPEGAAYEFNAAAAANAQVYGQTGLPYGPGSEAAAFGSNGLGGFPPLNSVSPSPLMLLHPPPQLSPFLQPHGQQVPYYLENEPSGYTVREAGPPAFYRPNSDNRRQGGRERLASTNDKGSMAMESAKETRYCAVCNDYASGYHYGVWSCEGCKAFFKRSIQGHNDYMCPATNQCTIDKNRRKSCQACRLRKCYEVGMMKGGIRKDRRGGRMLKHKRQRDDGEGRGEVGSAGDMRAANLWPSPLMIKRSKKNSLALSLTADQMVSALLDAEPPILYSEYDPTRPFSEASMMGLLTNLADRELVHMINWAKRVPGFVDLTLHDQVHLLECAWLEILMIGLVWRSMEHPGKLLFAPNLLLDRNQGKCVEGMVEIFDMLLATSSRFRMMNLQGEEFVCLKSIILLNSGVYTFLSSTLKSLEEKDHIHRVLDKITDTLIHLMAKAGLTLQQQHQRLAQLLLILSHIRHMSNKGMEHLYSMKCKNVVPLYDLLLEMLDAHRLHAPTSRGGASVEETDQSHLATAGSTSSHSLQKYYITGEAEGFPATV
The series can be described thus: Binding affinity to recombinant human ER-alpha LBD (301 to 553 residues) expressed in Escherichia coli BL21(DE3) after 1 hr by fluorescence polarization assay. (Polarisation of emitted light reports the rotation of a fluorescent probe.)

Series [2] can be described thus: Stability assessed as trypsin (unknown origin)-mediated compound hydrolysis by measuring compound half life at 250 uM at 37 degC by LC-MS/MS method. Format: ADME. The conditions noted are these: human.
A short description of series [3]: Drug uptake in HEK293T cells at 10 uM after 4 hrs by flow cytometry. As to conditions: human, hek-293t; call rule not given here. Format: ADME, cell-based. On the technique in general: Flow cytometry measures light scatter and fluorescence of single cells or particles in a stream.
Series [4] in a line: Drug uptake in cytoplasm of HEK293T cells at 10 uM after 16 hrs by DAPI staining based confocal microscopic method. Format: ADME, cell-based. As to conditions: human.

`CC[C@H](C)[C@H](NC(=O)CNC(=O)[C@H](CCCCNC(=O)c1ccc2c(c1)C(=O)OC21c2ccc(O)cc2Oc2cc(O)ccc21)NC(=O)[C@@H](N)CCCNC(=N)N)C(=O)N[C@@H](CC(C)C)C(=O)N[C@@H](CCCNC(=N)N)C(=O)N[C@@H](CCCNC(=N)N)C(=O)N[C@@H](CC(C)C)C(=O)N[C@@H](CC(C)C)C(=O)N[C@@H](CCC(N)=O)C(=O)NCC(=O)N[C@@H](Cc1c[nH]c2ccccc12)C(=O)O` (H-RK(5FAM)GILRRLLQGW-OH): in series [1], the Kd turned out to be 162 nM. The same measure, in the same setting: in the case of `CC[C@H](C)[C@H](NC(=O)CN1CCSCCC(=O)N[C@@H](CCCNC(=N)N)C(=O)N[C@@H](CCCCNC(=O)c2ccc3c(c2)C(=O)OC32c3ccc(O)cc3Oc3cc(O)ccc32)C1=O)C(=O)N[C@@H](CC(C)C)C(=O)N[C@@H](CCCNC(=N)N)C(=O)N[C@@H](CCCNC(=N)N)C(=O)N[C@@H](CC(C)C)C(=O)N[C@@H](CC(C)C)C(=O)N[C@@H](CCC(N)=O)C(=O)NCC(=O)N[C@@H](Cc1c[nH]c2ccccc12)C(N)=O` ([Mpa]RK(5FAM)[X1]ILRRLLQGW-NH2; thioether 1-4) it was 212 nM.

Turning to `CC[C@H](C)[C@H](NC(=O)CN1CC[S+]([O-])CCC(=O)N[C@@H](CCCNC(=N)N)C(=O)N[C@@H](CCCCN)C1=O)C(=O)N[C@@H](CC(C)C)C(=O)N[C@@H](CCCNC(=N)N)C(=O)N[C@@H](CCCNC(=N)N)C(=O)N[C@@H](CC(C)C)C(=O)N[C@@H](CC(C)C)C(=O)N[C@@H](CCC(N)=O)C(=O)NCC(=O)N[C@@H](Cc1c[nH]c2ccccc12)C(N)=O` (single isomer, unassigned; isomer 2), in series [2], the t1/2 was 2.1 min.

Take `CC[C@H](C)[C@H](NC(=O)CN1CC[S+]([O-])CCC(=O)N[C@@H](CCCNC(=N)N)C(=O)N[C@@H](CCCCN)C1=O)C(=O)N[C@@H](CC(C)C)C(=O)N[C@@H](CCCNC(=N)N)C(=O)N[C@@H](CCCNC(=N)N)C(=O)N[C@@H](CC(C)C)C(=O)N[C@@H](CC(C)C)C(=O)N[C@@H](CCC(N)=O)C(=O)NCC(=O)N[C@@H](Cc1c[nH]c2ccccc12)C(N)=O` (stereo in doubt): the t1/2 in series [2] is 5.9 min.

Regarding `CC[C@H](C)[C@H](NC(=O)CN1CC[S+]([O-])CCC(=O)N[C@@H](CCCNC(=N)N)C(=O)N[C@@H](CCCCNC(=O)c2ccc3c(c2)C(=O)OC32c3ccc(O)cc3Oc3cc(O)ccc32)C1=O)C(=O)N[C@@H](CC(C)C)C(=O)N[C@@H](CCCNC(=N)N)C(=O)N[C@@H](CCCNC(=N)N)C(=O)N[C@@H](CC(C)C)C(=O)N[C@@H](CC(C)C)C(=O)N[C@@H](CCC(N)=O)C(=O)NCC(=O)N[C@@H](Cc1c[nH]c2ccccc12)C(N)=O` (stereo in doubt; form 1), the Kd in series [1] was 183 nM.

Regarding `CC[C@H](C)[C@H](NC(=O)CN1CC[S+]([O-])CCC(=O)N[C@@H](CCCNC(=N)N)C(=O)N[C@@H](CCCCNC(=O)c2ccc3c(c2)C(=O)OC32c3ccc(O)cc3Oc3cc(O)ccc32)C1=O)C(=O)N[C@@H](CC(C)C)C(=O)N[C@@H](CCCNC(=N)N)C(=O)N[C@@H](CCCNC(=N)N)C(=O)N[C@@H](CC(C)C)C(=O)N[C@@H](CC(C)C)C(=O)N[C@@H](CCC(N)=O)C(=O)NCC(=O)N[C@@H](Cc1c[nH]c2ccccc12)C(N)=O` (stereo in doubt; form 2), the Kd in series [1] was determined as 386 nM. In addition, the Drug uptake entry in series [3] and in series [4] was “Active” each time.
